# Experimental data from patent US11738088B2, “Boryl ethers, carbonates, and cyclic acetals as oxidatively-triggered drug delivery vehicles” (University of Pittsburgh—Of the Commonwealth System of …, priority 2016, dated 2023).
# Key:
# [1] = Oxidative breakdown with urea.H2O2 monitored by 1H NMR; format: physicochemical; details: for yield of released product (1H NMR vs internal standard) / half-life: 6-12 equiv H2O2.urea, pH 8.0, CD3CN:D2O 5:1, rt; for half-life: H2O2.urea (6-12 equiv) in CD3CN:D2O 5:1, read-out: t1/2 (substrate consumption); for oxidative breakdown / cargo release (in words): in the presence of H2O2
# Experimental: The oxidative breakdown of compounds 7 and 8 was achieved by subjecting them (˜25 mM) to urea.H2O2 (300 mM) in a mixture of CD3CN and aqueous (D2O) buffer (pH=8.0). The buffer was selected to mimic the experimentally determined pH of mitochondria in consideration of potential applications to mitigating neuronal oxidative stress. Initial experiments were conducted in a 5:1 ratio of CD3CN and buffer (Scheme 3). Reaction progress was monitored by ^1H NMR through following the disappearance of the signals for diastereotopic hydrogens from the methylene group in the starting materials and the appearance of the corresponding enantiotopic hydrogens in butanone. Conversions were calculated by comparison to the internal standard 1,2-dimethoxyethane.
# [2] = as above; format: physicochemical; details: urea.H2O2 300 mM
# [3] = ~25 mM substrate, urea.H2O2 300 mM, CD3CN:buffer 5:1, pH 8.0
structure (smiles),measurement,setting,value
CCC(C)(OCOC)B1OC(C)(C)C(C)(C)O1 (centres unmarked) [Compound 7],NMR yield of butanone,"[1]; urea.H2O2 300 mM, CD3CN:buffer 5:1, pH 8.0",79%
same,time for consumption of 50% of the starting material,[1]; [3],less than 2 min
same,NMR yield of butanone,[2]; CD3CN:buffer 1:1,84%
same,NMR yield of butanone,[2]; pH 7.2,81%
CCC(C)(OC(=O)Oc1ccccc1)B1OC(C)(C)C(C)(C)O1 (centres unmarked) [Compound 8],yield of the desired products,"[1]; urea.H2O2 300 mM, CD3CN:buffer 5:1",84%
same,time for consumption of 50% of the starting material,[1]; [3],22 min
same,time for consumption of 50% of the starting material,[2]; CD3CN:buffer 1:1,≤ 12 min
same,yield of the desired products,[2]; CD3CN:buffer 1:1,84%
CCC(C)(OCOC1CCCCC1)B1OC(C)(C)C(C)(C)O1 (centres unmarked) [Compound 11],yield of released product (1H NMR vs internal standard),[1],84%
same,half-life,[1],< 2 min
same,oxidative breakdown / cargo release (in words),[1],released smoothly
CCC(C)(OCO[C@@H]1C[C@H](C)CC[C@H]1C(C)C)B1OC(C)(C)C(C)(C)O1 (some centres unmarked) [Compound 13],yield of released product (1H NMR vs internal standard),[1],85%
same,half-life,[1],< 2 min
same,oxidative breakdown / cargo release (in words),[1],released smoothly
CCOC(C)(CCc1ccc(O[Si](C)(C)C(C)(C)C)cc1)B1OC(C)(C)C(C)(C)O1 (centres unmarked) [Compound 15],yield of released product (1H NMR vs internal standard),[1],89%
same,half-life,[1],< 2 min
CCC(C)(OCC(C)C)B1OC(C)(C)C(C)(C)O1 (centres unmarked) [Compound 17],yield of released product (1H NMR vs internal standard),[1],89%
same,half-life,[1],< 2 min
CC(C)C(OC1CCCCC1)B1OC(C)(C)C(C)(C)O1 (centres unmarked) [Compound 19],yield of released product (1H NMR vs internal standard),[1],83%
same,half-life,[1],< 2 min
Cc1c(C)c2c(c(C)c1OC(=O)OC(C)(CCO[Si](C)(C)C(C)(C)C)B1OC(C)(C)C(C)(C)O1)CCC(C)(C)O2 (centres unmarked) [Compound 20],yield of released product (1H NMR vs internal standard),[1],79%
same,half-life,[1],90 min
same,oxidative breakdown / cargo release (in words),[1],somewhat slow
CCC(C)(OC(=O)c1ccccc1)B1OC(C)(C)C(C)(C)O1 (centres unmarked) [Compound 22],yield of released product (1H NMR vs internal standard),[1],16%
same,half-life,[1],> 936 min
COc1ccc([C@H]2OCC[C@](C)(B3OC(C)(C)C(C)(C)O3)O2)cc1 [Compound 28],time for consumption of 50% of the starting material,"[1]; H2O2, pH 8.0",≤ 1.5 min
same,time to complete conversion,"[1]; H2O2, pH 8.0",< 15 min
same,yield of anisaldehyde and 1-hydroxy-3-butanone,"[1]; H2O2, pH 8.0",94%
CC1(B2OC(C)(C)C(C)(C)O2)CCOC(c2ccccc2)(c2ccccc2)O1 (centres unmarked) [Compound 29],oxidative breakdown / cargo release (in words),[1],quickly and efficiently
